Measurements published in ChEMBL document CHEMBL2380212, “Synthesis, single crystal and antitumor activities of benzimidazole-quinazoline hybrids” (Bioorg Med Chem Lett, 2013).

Key:
[1] = n-Octanol-phosphate buffer partition coefficient, log P of the compound at pH 7.4 by shake flask method; assay type: physicochemical
[2] = system: BT-549; assay: Cytotoxicity against human BT549 cells at 10 uM after 48 hrs by SRB assay; assay type: functional; details: BT-549, 48 h, read-out: GI
[3] = system: HT-29; assay: Cytotoxicity against human HT-29 cells at 10 uM after 48 hrs by SRB assay; assay type: functional; details: HT-29, 48 h, read-out: GI
[4] = system: 786-0; assay: Cytotoxicity against human 786-0 cells at 10 uM after 48 hrs by SRB assay; assay type: functional; details: 786-0, 48 h, read-out: GI
[5] = system: SNB-75; assay: Cytotoxicity against human SNB75 cells at 10 uM after 48 hrs by SRB assay; assay type: functional; details: SNB-75, 48 h, read-out: GI
[6] = Cytotoxicity against human EKVX cells at 10 uM after 48 hrs by SRB assay; assay type: functional; details: read-out: GI
[7] = system: MDA-MB-435; assay: Cytotoxicity against human MDA-MB-435 cells at 10 uM after 48 hrs by SRB assay; assay type: functional; details: MDA-MB-435, 48 h, read-out: GI
[8] = system: HCT-116; assay: Cytotoxicity against human HCT116 cells at 10 uM after 48 hrs by SRB assay; assay type: functional; details: HCT-116, 48 h, read-out: GI
[9] = system: MDA-MB-231; assay: Cytotoxicity against human MDA-MB-231 cells at 10 uM after 48 hrs by SRB assay; assay type: functional; details: MDA-MB-231, 48 h, read-out: GI
[10] = system: COLO 205; assay: Cytotoxicity against human COLO205 cells at 10 uM after 48 hrs by SRB assay; assay type: functional; details: COLO 205, 48 h, read-out: GI
[11] = system: U-251; assay: Cytotoxicity against human U251 cells at 10 uM after 48 hrs by SRB assay; assay type: functional; details: U-251, 48 h, read-out: GI
[12] = system: Malme-3M; assay: Cytotoxicity against human MALME-3M cells at 10 uM after 48 hrs by SRB assay; assay type: functional; details: read-out: GI
[13] = system: SF-268; assay: Cytotoxicity against human SF268 cells at 10 uM after 48 hrs by SRB assay; assay type: functional; details: SF-268, 48 h, read-out: GI
[14] = system: K562; assay: Cytotoxicity against human K562 cells at 10 uM after 48 hrs by SRB assay; assay type: functional; details: K562, 48 h, read-out: GI
[15] = system: HOP-92; assay: Cytotoxicity against human HOP92 cells at 10 uM after 48 hrs by SRB assay; assay type: functional; details: HOP-92, 48 h, read-out: GI
[16] = system: ACHN; assay: Cytotoxicity against human ACHN cells at 10 uM after 48 hrs by SRB assay; assay type: functional; details: read-out: GI
[17] = system: T47D; assay: Cytotoxicity against human T47D cells at 10 uM after 48 hrs by SRB assay; assay type: functional; details: read-out: GI
[18] = system: HCT-15; assay: Cytotoxicity against human HCT15 cells at 10 uM after 48 hrs by SRB assay; assay type: functional; details: HCT-15, 48 h, read-out: GI
[19] = system: OVCAR-5; assay: Cytotoxicity against human OVCAR5 cells at 10 uM after 48 hrs by SRB assay; assay type: functional; details: OVCAR-5, 48 h, read-out: GI
[20] = system: UACC-257; assay: Cytotoxicity against human UACC257 cells at 10 uM after 48 hrs by SRB assay; assay type: functional; details: UACC-257, 48 h, read-out: GI
[21] = system: UACC-62; assay: Cytotoxicity against human UACC62 cells at 10 uM after 48 hrs by SRB assay; assay type: functional; details: UACC-62, 48 h, read-out: GI
[22] = system: MOLT-4; assay: Cytotoxicity against human MOLT4 cells at 10 uM after 48 hrs by SRB assay; assay type: functional; details: MOLT-4, 48 h, read-out: GI
[23] = system: SK-MEL-2; assay: Cytotoxicity against human SK-MEL-2 cells at 10 uM after 48 hrs by SRB assay; assay type: functional; details: SK-MEL-2, 48 h, read-out: GI
[24] = system: NCI-H226; assay: Cytotoxicity against human NCI-H226 cells at 10 uM after 48 hrs by SRB assay; assay type: functional; details: NCI-H226, 48 h, read-out: GI
[25] = system: TK-10; assay: Cytotoxicity against human TK10 cells at 10 uM after 48 hrs by SRB assay; assay type: functional; details: TK-10, 48 h, read-out: GI
[26] = system: MCF7; assay: Cytotoxicity against human MCF7 cells at 10 uM after 48 hrs by SRB assay; assay type: functional; details: MCF7, 48 h, read-out: GI
[27] = system: SNB-19; assay: Cytotoxicity against human SNB19 cells at 10 uM after 48 hrs by SRB assay; assay type: functional; details: SNB-19, 48 h, read-out: GI
[28] = system: OVCAR-4; assay: Cytotoxicity against human OVCAR4 cells at 10 uM after 48 hrs by SRB assay; assay type: functional; details: OVCAR-4, 48 h, read-out: GI
[29] = system: CCRF-CEM; assay: Cytotoxicity against human CCRF-CEM cells at 10 uM after 48 hrs by SRB assay; assay type: functional; details: read-out: GI
[30] = system: UO-31; assay: Cytotoxicity against human UO31 cells at 10 uM after 48 hrs by SRB assay; assay type: functional; details: UO-31, 48 h, read-out: GI
[31] = system: SK-OV-3; assay: Cytotoxicity against human SKOV3 cells at 10 uM after 48 hrs by SRB assay; assay type: functional; details: SK-OV-3, 48 h, read-out: GI
[32] = system: DU-145; assay: Cytotoxicity against human DU145 cells at 10 uM after 48 hrs by SRB assay; assay type: functional; details: DU-145, 48 h, read-out: GI
[33] = system: SW-620; assay: Cytotoxicity against human SW620 cells at 10 uM after 48 hrs by SRB assay; assay type: functional; details: SW-620, 48 h, read-out: GI
[34] = system: CAKI-1; assay: Cytotoxicity against human Caki1 cells at 10 uM after 48 hrs by SRB assay; assay type: functional; details: CAKI-1, 48 h, read-out: GI
[35] = system: NCI-H460; assay: Cytotoxicity against human NCI-H460 cells at 10 uM after 48 hrs by SRB assay; assay type: functional; details: NCI-H460, 48 h, read-out: GI
[36] = system: SR; assay: Cytotoxicity against human SR cells at 10 uM after 48 hrs by SRB assay; assay type: functional; details: read-out: GI
[37] = system: SN12C; assay: Cytotoxicity against human SN12C cells at 10 uM after 48 hrs by SRB assay; assay type: functional; details: read-out: GI
[38] = system: IGROV-1; assay: Cytotoxicity against human IGROV1 cells at 10 uM after 48 hrs by SRB assay; assay type: functional; details: IGROV-1, 48 h, read-out: GI
[39] = system: NCI-H522; assay: Cytotoxicity against human NCI-H522 cells at 10 uM after 48 hrs by SRB assay; assay type: functional; details: NCI-H522, 48 h, read-out: GI
[40] = system: RPMI-8226; assay: Cytotoxicity against human RPMI8226 cells at 10 uM after 48 hrs by SRB assay; assay type: functional; details: RPMI-8226, 48 h, read-out: GI
[41] = system: NCI-H322M; assay: Cytotoxicity against human NCI-H322M cells at 10 uM after 48 hrs by SRB assay; assay type: functional; details: read-out: GI
[42] = system: SF-295; assay: Cytotoxicity against human SF295 cells at 10 uM after 48 hrs by SRB assay; assay type: functional; details: SF-295, 48 h, read-out: GI
[43] = system: PC-3; assay: Cytotoxicity against human PC3 cells at 10 uM after 48 hrs by SRB assay; assay type: functional; details: PC-3, 48 h, read-out: GI
[44] = system: HOP-62; assay: Cytotoxicity against human HOP62 cells at 10 uM after 48 hrs by SRB assay; assay type: functional; details: HOP-62, 48 h, read-out: GI
[45] = system: OVCAR-3; assay: Cytotoxicity against human OVCAR3 cells at 10 uM after 48 hrs by SRB assay; assay type: functional; details: OVCAR-3, 48 h, read-out: GI
[46] = system: RXF 393; assay: Cytotoxicity against human RXF393 cells at 10 uM after 48 hrs by SRB assay; assay type: functional; details: RXF 393, 48 h, read-out: GI
[47] = system: SK-MEL-5; assay: Cytotoxicity against human SK-MEL-5 cells at 10 uM after 48 hrs by SRB assay; assay type: functional; details: SK-MEL-5, 48 h, read-out: GI
[48] = system: A549; assay: Cytotoxicity against human A549 cells at 10 uM after 48 hrs by SRB assay; assay type: functional; details: A549, 48 h, read-out: GI
[49] = system: NCI-H23; assay: Cytotoxicity against human NCI-H23 cells at 10 uM after 48 hrs by SRB assay; assay type: functional; details: NCI-H23, 48 h, read-out: GI
[50] = system: NCI/ADR-RES; assay: Cytotoxicity against human NCI/ADR-RES cells at 10 uM after 48 hrs by SRB assay; assay type: functional; details: read-out: GI
[51] = system: HL-60(TB); assay: Cytotoxicity against human HL-60(TB) cells at 10 uM after 48 hrs by SRB assay; assay type: functional; details: HL-60, 48 h, read-out: GI
[52] = system: LOX IMVI; assay: Cytotoxicity against human LOXIMVI cells at 10 uM after 48 hrs by SRB assay; assay type: functional; details: read-out: GI
[53] = system: KM12; assay: Cytotoxicity against human KM12 cells at 10 uM after 48 hrs by SRB assay; assay type: functional; details: KM12, 48 h, read-out: GI

## C=CCn1c(C)nc2ccc(Nc3nc(N4CCCCC4)nc4ccccc34)cc21
[1]
  logD: 2.72

## O=c1[nH]cc(F)c(=O)[nH]1 [FLUOROURACIL]
[2]
  inhibition of growth at 10 µM: 37.8%
[3]
  inhibition of growth at 10 µM: 27.1%
[4]
  inhibition of growth at 10 µM: 48.7%
[5]
  inhibition of growth at 10 µM: 65.9%
[6]
  inhibition of growth at 10 µM: 58.4%
[7]
  inhibition of growth at 10 µM: 36.6%
[8]
  inhibition of growth at 10 µM: 17.8%
[9]
  inhibition of growth at 10 µM: 78.1%
[10]
  inhibition of growth at 10 µM: 40.2%
[11]
  inhibition of growth at 10 µM: 50.3%
[12]
  inhibition of growth at 10 µM: 58.2%
[13]
  inhibition of growth at 10 µM: 59%
[14]
  inhibition of growth at 10 µM: 42.3%
[15]
  inhibition of growth at 10 µM: 50.6%
[16]
  inhibition of growth at 10 µM: 39.3%
[17]
  inhibition of growth at 10 µM: 56.7%
[18]
  inhibition of growth at 10 µM: 26.5%
[19]
  inhibition of growth at 10 µM: 44.3%
[20]
  inhibition of growth at 10 µM: 19.5%
[21]
  inhibition of growth at 10 µM: 39.7%
[22]
  inhibition of growth at 10 µM: 43.1%
[23]
  inhibition of growth at 10 µM: 95.5%
[24]
  inhibition of growth at 10 µM: 69.5%
[25]
  inhibition of growth at 10 µM: 66.9%
[26]
  inhibition of growth at 10 µM: 11.5%
[27]
  inhibition of growth at 10 µM: 65.9%
[28]
  inhibition of growth at 10 µM: 59.4%
[29]
  inhibition of growth at 10 µM: 57.1%
[30]
  inhibition of growth at 10 µM: 41.3%
[31]
  inhibition of growth at 10 µM: 77.5%
[32]
  inhibition of growth at 10 µM: 35.5%
[33]
  inhibition of growth at 10 µM: 50.1%
[34]
  inhibition of growth at 10 µM: 39.4%
[35]
  inhibition of growth at 10 µM: 13%
[36]
  inhibition of growth at 10 µM: 24.8%
[37]
  inhibition of growth at 10 µM: 54%
[38]
  inhibition of growth at 10 µM: 51.2%
[39]
  inhibition of growth at 10 µM: 58%
[40]
  inhibition of growth at 10 µM: 41.4%
[41]
  inhibition of growth at 10 µM: 59.5%
[42]
  inhibition of growth at 10 µM: 69.1%
[43]
  inhibition of growth at 10 µM: 58.2%
[44]
  inhibition of growth at 10 µM: 47.8%
[45]
  inhibition of growth at 10 µM: 47.4%
[46]
  inhibition of growth at 10 µM: 34.3%
[47]
  inhibition of growth at 10 µM: 33.7%
[48]
  inhibition of growth at 10 µM: 34.2%
[49]
  inhibition of growth at 10 µM: 39%
[50]
  inhibition of growth at 10 µM: 47.6%
[51]
  inhibition of growth at 10 µM: 47.9%
[52]
  inhibition of growth at 10 µM: 30.4%
[53]
  inhibition of growth at 10 µM: 40.7%
